Measurements as given in PubChem BioAssay (NCI).
Values joined by “and” are separate entries in the source; they are usually repeats but may differ in a detail not shown here. Equal values may be shown once.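 Test compounds were applied to cells in 96-well plates for 48 hours at 5 doses. GI50 = concentration required for 50% inhibition of growth. TGI is the concentration that stops growth completely.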

Legend:
Assay in all cases: NCI tumour cell line growth inhibition, 48 h
[1] = tested on: A549 NSCLC
[2] = tested on: KM12 colon
[3] = tested on: OVCAR-5 ovarian
[4] = tested on: SNB-75 CNS
[5] = tested on: SK-MEL-2 melanoma
[6] = tested on: M14 melanoma
[7] = tested on: OVCAR-3 ovarian
[8] = tested on: TK-10 renal
[9] = tested on: BT-549 breast
[10] = tested on: NCI-H522 lung

Structure (SMILES)	GI50 [1]	TGI [1]	GI50 [2]	TGI [2]	GI50 [3]	TGI [3]	GI50 [4]	TGI [4]	GI50 [5]	TGI [5]	GI50 [6]	TGI [6]	GI50 [7]	TGI [7]	GI50 [8]	TGI [8]	GI50 [9]	TGI [9]	GI50 [10]	TGI [10]
O=C1CC[C@H](N2Cc3c(OCc4ccc(CN5CCOCC5)cc4)cccc3C2=O)C(=O)N1	> 100 µM	> 100 µM	> 100 µM	> 100 µM	> 100 µM	> 100 µM	> 100 µM	> 100 µM	> 100000 nM	> 100 µM	> 100 µM	> 100 µM	> 100000 nM	> 100 µM	> 100 µM	> 100 µM	98.9 µM	> 100 µM	> 100 µM	> 100 µM
CCCCCCCCCC[C@@H](O)[C@@H]1CC[C@@H]([C@@H]2CC[C@@H]([C@@H](O)CCCCCCCCCC[C@H](O)CC3=CC(C)OC3=O)O2)O1 (some centres not stated)	3.05 µM	38.5 µM	> 100 µM		> 75.4 µM	> 100 µM	6.08 µM	8.58 µM and 18 µM	1230 nM	4.68 µM and 31.2 µM	5.47 µM	5.16 µM and 29.6 µM	1470 nM	3.34 µM and 22.3 µM	5.18 µM	9.07 µM and 26 µM		51.6 µM		13.8 µM
CC[C@@]1(OC(=O)C(N)CCCCN)C(=O)OCc2c1cc1n(c2=O)Cc2cc3ccccc3nc2-1 (some centres not stated)		2.81 µM		5.26 µM		3.86 µM		0.609 µM		1.39 µM		1.37 µM		2.37 µM		65.9 µM		10.9 µM		2.39 µM
